Assay results reported in PubChem BioAssay (NCI).
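Exposure lasted 48 hours, with cells grown in 96-well plates and compounds tested at five concentrations. GI50 marks 50% less growth. Definition used: TGI = concentration required for complete inhibition of growth.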

Key:
Assay in all cases: inhibition of tumour cell growth, NCI panel, 48 h
HOP-62 NSCLC = tested on: HOP-62 NSCLC
MDA-N = tested on: MDA-N
M14 melanoma = tested on: M14 melanoma
U251 CNS = tested on: U251 CNS
UO-31 renal = tested on: UO-31 renal
NCI-H460 lung = tested on: NCI-H460 lung
TK-10 renal = tested on: TK-10 renal
HL-60(TB) leukemia = tested on: HL-60(TB) leukemia
RPMI-8226 leukemia = tested on: RPMI-8226 leukemia
T-47D breast = tested on: T-47D breast

| Compound | TGI (HOP-62 NSCLC) [µM] | TGI (MDA-N) [µM] | TGI (M14 melanoma) [µM] | TGI (U251 CNS) [µM] | TGI (UO-31 renal) [µM] | TGI (NCI-H460 lung) [µM] | TGI (TK-10 renal) [µM] | TGI (HL-60(TB) leukemia) [µM] | TGI (RPMI-8226 leukemia) [µM] | TGI (T-47D breast) [µM] | GI50 (M14 melanoma) [µM] | GI50 (UO-31 renal) [µM] | GI50 (TK-10 renal) [µM] | GI50 (HL-60(TB) leukemia) [µM] | GI50 (RPMI-8226 leukemia) [µM] | GI50 (HOP-62 NSCLC) [µM] |
| --- | --- | --- | --- | --- | --- | --- | --- | --- | --- | --- | --- | --- | --- | --- | --- | --- |
| Nc1nc(N)c2nnn(C[C@H]3CC[C@@H](CO)C3)c2n1 | > 100 | > 100 | > 100 | > 100 | > 100 | > 100 | > 100 | > 100 | > 100 |  |  |  |  |  |  |  |
| S=C(c1c[nH]c2ccccc12)N1CCN(c2ccccc2)CC1 | > 100 | > 100 | > 100 | 77.8 |  | > 100 | > 100 | > 100 | > 100 |  |  |  |  |  |  |  |
| CCOC(=O)C(C)(C)/C=C\C(Cl)=C(Cl)Cl | > 100 | > 100 | > 100 |  | > 100 |  | > 100 | > 100 | > 100 |  |  |  |  |  |  |  |
| Fc1cc(-c2ncc(Cl)cc2Cl)c2cccccc1-2 | > 100 | > 100 | > 100 |  | > 100 | > 100 | > 100 |  |  |  |  |  |  |  |  |  |
| CC(=N/NC(=S)N1CCCCC1)/C(C)=N\NC(=S)N1CCCCC1 | 3.51 | 6.44 | 4.57 |  | 2.79 | 3.6 | 3.24 |  | 5.13 | 3.27 |  |  |  |  |  |  |
| O=c1[nH]c(Nc2cccc(Br)c2)nc2nc[nH]c12 |  | > 100 | > 100 |  | > 100 | > 100 | > 100 | > 100 | > 100 | > 100 |  |  |  |  |  |  |
| Nc1nc(N)c2nc(-c3ccco3)cnc2n1 | > 100 |  | > 100 | > 100 | > 100 | > 100 | > 100 | 89.6 | > 100 |  |  |  |  |  |  |  |
| COc1cc(/C=C2\CN(S(=O)(=O)c3ccc(C)cc3)C/C(=C\c3cc(CN4CCCCC4)c(O)c(OC)c3)C2=O)cc(CN2CCCCC2)c1O |  |  | 3.27 |  | 3.03 |  | 3.63 | 4.34 | 5.45 |  | 1.61 | 1.6 | 1.98 | 1.88 | 2.03 |  |
| CSc1nc(O)c(/C=C2\C=Nc3ccccc32)[nH]1 | > 100 |  | > 100 | > 100 | > 100 | > 100 | > 100 | 94.1 | > 100 | > 100 |  |  |  |  |  |  |
| CCCC#CC(O)(C(=O)OC1CCN(C)CC1)C1CCCCC1 (centres undefined) | > 100 | > 100 | > 100 | > 100 | > 100 | > 100 | > 100 |  | > 100 | > 100 |  |  |  |  |  |  |
| O=C(CCc1ccccc1CO)NCCc1ccccc1 | > 100 |  | > 100 | > 100 | > 100 | > 100 | > 100 | > 100 | > 100 | > 100 |  |  |  |  |  |  |
| COc1ccc(C(C#N)NCCCCCCNC(C#N)c2ccc(OC)cc2)cc1 (centres undefined) | > 100 | > 100 | > 100 | > 100 | > 100 |  | > 100 | > 100 | > 100 | > 100 |  |  |  |  |  |  |
| CC(=O)O[C@H]1C(=O)[C@@]2(C)[C@H]([C@H](OC(=O)c3ccccc3)[C@]3(O)C[C@H](OC(=O)[C@H](O)[C@@H](NC(=O)CC(C)C)c4ccccc4)C(C)=C1C3(C)C)[C@]1(OC(C)=O)CO[C@@H]1C[C@@H]2O | > 10 | > 10 | > 10 | > 10 | > 10 | > 10 | > 10 | 0.00899 |  | > 10 |  |  |  |  |  |  |
| O=C1/C(=C/c2cccs2)NC(=S)N1CN1CCOCC1 | > 100 | > 100 | > 100 | > 100 | > 100 |  | > 100 |  | > 100 |  |  |  |  |  |  |  |
| O[C@H]1[C@H](O)[C@H](O)CN2CCC[C@@H](O)[C@H]12 | > 100 |  | > 100 | > 100 | > 100 |  | > 100 | > 100 | > 100 | > 100 |  |  |  |  |  |  |
| CC(=O)O[C@H]1CC[C@@]2(C)C(=CC[C@@H]3[C@@H]2CC[C@]2(C)c4c(cc(C#N)c(=N)n4C(C)=O)C[C@@H]32)C1 | 49.4 | 52.9 | 32.5 | > 100 | 52.8 | 30.3 | 66.8 | 36 |  | 46.9 |  |  |  |  |  |  |
| Cc1ccc(/C=N/NC2=NCCN2)s1 | > 100 | > 100 | > 100 | > 100 | > 100 |  | > 100 | > 100 | > 100 | > 100 |  |  |  |  |  |  |
| CCn1c(-c2ccc(C)cc2)cs/c1=N\C(P(=O)(O)O)P(=O)(O)O | > 100 | > 100 | > 100 | > 100 | > 100 | > 100 | > 100 | > 100 | > 100 |  |  |  |  |  |  |  |
| COc1ccc(C2SCC(=O)N2NC(=O)C(C)Oc2ccccc2Cl)cc1 (centres undefined) |  |  | > 100 | > 100 | > 100 | > 100 | > 100 | 35.2 | > 100 | > 100 |  |  |  |  |  |  |
| CCOC(=O)c1cc(=O)oc2c1N(C)c1ncccc1N2 | > 100 | > 100 | > 100 | > 100 | > 100 | > 100 | > 100 |  | > 100 | > 100 |  |  |  |  |  |  |
| O=C(O)c1cc(O)c2c(c1)Cc1cccc(O)c1C2=O | 43 |  | 55.2 | 37.3 | 34.2 | 65.6 | > 100 | 47.2 | 53.2 | > 100 |  |  |  |  |  |  |
| COc1cc2c(cc1OC)C(Cc1ccccc1CCCl)=NCC2 | > 100 |  | > 100 | > 100 | > 100 | > 100 | > 100 | 97.2 | 98.1 | > 100 |  |  |  |  |  |  |
| C=Cc1cc2c(cc1O)CC[C@@H]1[C@@H]2CC[C@]2(C)[C@@H](O)CC[C@@H]12 | 19.8 | 7.76 | 17.7 | 15.1 | 20.5 | 21.1 | 38.3 | 7.27 |  | 36.2 |  |  |  |  |  | 5.04 |
| O=C(CN1CCOCC1)CC(O)(C(F)(F)F)C(F)(F)F |  | > 100 | > 100 | > 100 | > 100 |  | > 100 | > 100 | > 100 | > 100 |  |  |  |  |  |  |
